“Also recorded” adds a separate entry of the source.
What was measured:
[1] = target: TRX-NTa3 fusion protein (TRX-G2-NTa3(1-393)), N-terminal domain of mouse V-ATPase subunit a3 fused to thioredoxin (mouse); assay: ELISA saturation curve, plate coated with TRX-NTa3, GST-B2 as analyte; apparent Kd from half-maximal binding
[2] = target: TRX-NTa3 fusion protein (TRX-G2-NTa3(1-393)), N-terminal domain of mouse V-ATPase subunit a3 fused to thioredoxin (mouse); assay: ELISA saturation curve, plate coated with TRX-NTa3, GST-B1 as analyte; apparent Kd from half-maximal binding
RAW 264.7 cells [3] = assay: TRAP staining analysis (qualitative and cell counts) of RANKL-mediated differentiation and fusion; type: cell-based, mouse; details: for effect on osteoclast formation, differentiation and fusion (in words): at 1.25 μM / at a concentration efficacious in inhibiting acid secretion, where stated
Procedure: The concentration range of compound tested was from 0.6 to 40 μM, as follows (in μM): a, control, vehicle only; b, 0.63; c, 1.25; d, 2.5; e, 5.0; f, 10; g, 20; h, 40. […] The latter observation is consistent with the conclusion of the protein assay of FIG. 7.
Plotted are cell counts for multinucleated cells with greater than 3 nuclei after treatment with compound KM91104. This figure confirms the qualitative conclusion of FIG. 10 that there is a drop off in the number of larger osteoclasts above 1.25 μM concentration.

RAW 264.7 cells [4] = assay: Total solubilized TRAP assay of RANKL-mediated differentiation; type: cell-based, mouse; details: 3 days of growth with RANKL, 0.3 to 40 μM tested
Procedure: The concentration range of compound tested was from 0.3 to 40 μM, as indicated (see Materials and Methods). C indicates control, vehicle only added. TRAP is a marker for osteoclast differentiation and will convert colorless p-nitrophenylphosphate to yellow nitrophenol under acidic conditions. The yellow color is quantified spectrophotometrically and indicates degree of differentiation after 3 days of growth with RANKL.

[5] = test system: undifferentiated RAW 264.7 cells; assay: Protein assay on cell cultures (effect on cellular growth); type: cell-based, mouse; details: for effect on cell growth, metabolic activity, cytotoxicity (in words): at 1.25 μM / at a concentration efficacious in inhibiting acid secretion; for concentration that did not significantly affect cell growth / total protein: undifferentiated RAW 264.7 cells, 0.3 to 40 μM tested, n=3
Procedure: Concentration range of compound tested was from 0.3 to 40 μM, as indicated (n=3, error bars are +/−SD). […] C indicates control, vehicle only added. The test cell line was undifferentiated RAW 264.7 cells.

[6] = test system: undifferentiated RAW 264.7 cells; assay: MTT assay to determine cytotoxicity; type: cell-based, mouse
Procedure: The concentration range of compound tested was from 0.3 to 40 μM, as indicated (n=3). Yellow MTT is converted to purple formazan by mitochondrial reductases. Formazan is measured spectrophotometrically to deduce metabolic activity of test cells. Reduced metabolic activity indicates metabolic dysfunction due to cytotoxicity. In this case, significant cytotoxicity is not seen up to 2.5 μM KM91104 concentration. C indicates control, vehicle only added. The test cell line was undifferentiated RAW 264.7 cells.

[7] = test system: mouse bone marrow-derived macrophages (BMM); assay: TRAP staining of osteoclasts RANKL-differentiated from bone marrow-derived macrophages; type: cell-based; details: 1.25 μM
Procedure: Panels show: a, control, vehicle only; b and c are duplicates with 1.25 μM KM91104.

[8] = test system: RANKL-differentiated RAW 264.7 cells; assay: Hydroxyapatite resorption on Corning Osteo-Assay Surface plates; type: cell-based, mouse; details: for acid secretion of osteoclasts (in words): murine osteoclasts
Procedure: RAW 264.7 cells (American Type Culture Collection (ATCC), cat. no. TIB-71) were differentiated in the presence of 100 ng/ml RANKL on synthetic mineralized surfaces of Corning Osteo-Assay Surface 96-well plates (Corning Inc. Life Sciences, Lowell, Mass.; cat. no. 3988XX1). Cells were cultured for 5 days in 200 μl α-MEM (Grand Island Biological Co. (GIBCO)/Invitrogen Corp. cat. no. 12571-063) with 10% fetal bovine serum (FBS; (GIBCO/Invitrogen) cat. no. 10437-028, Lot 1233072). Exposure of cells to RANKL and KM91104 was continuous throughout the experiment. The complete medium was changed on the third day. On day 5, cells were removed using 3% sodium hypochlorite solution. Plates were air dried and then imaged using digital brightfield photomicrography (Leica DM IRE2 with OpenLab software, Leica Microsystems, Richmond Hill, Canada). Image analysis was carried out with NIH ImageJ software (National Institutes of Health, Bethesda, Md.). Concentrations of KM91104 (μM) in medium were as follows: a, control, vehicle only; b, 0.63; c, 1.25; d, 2.5; e, 5.0; f, 10; g, 20; h, 40.
The concentration range of KM91104 tested was from 0.3 to 40 μM, as indicated (see Materials and Methods). C indicates control, vehicle only added. […] Error bars indicate +/−SD (n=3).
Bone resorption (FIGS. 13 and 14) was assayed using the following method. RAW 264.7 cells were differentiated on synthetic mineralized surfaces in 96 well Corning Osteo Assay Surface plates with 100 ng/ml RANK ligand. Wells were simultaneously treated with the lead compound. Cells were cultured for 5 days in […] of α-MEM. The complete medium was changed on the third day. On day 5, cells were removed using 50% bleach solution. Plates were dried and imaged using digital brightfield photomicrograpy. Image analysis was carried out using ImageJ.

[9] = target: TRX-NTa3 fusion protein (TRX-G2-NTa3(1-393)), N-terminal domain of mouse V-ATPase subunit a3 fused to thioredoxin (mouse); assay: ELISA, plate coated with TRX-NTa3, GST-CTB2 as analyte; apparent Kd
[10] = target: TRX-NTa3 fusion protein (TRX-G2-NTa3(1-393)), N-terminal domain of mouse V-ATPase subunit a3 fused to thioredoxin (mouse); assay: ELISA, plate coated with TRX-NTa3, GST-NTB2 as analyte; apparent Kd
[11] = target: TRX-NTa3 fusion protein (TRX-G2-NTa3(1-393)), N-terminal domain of mouse V-ATPase subunit a3 fused to thioredoxin (mouse); assay: ELISA, plate coated with TRX-NTa3, GST-NTB2 against GST-B2(GH)

Molecule: GST-B2(GH) fusion protein (GST-G2-B2(1-511)-G2H6G2), full length mouse V-ATPase subunit B2 fused to glutathione-S-transferase
- Kd [1]: 2.4 nM

Molecule: GST-B1(GH) fusion protein (GST-G2-B1(1-513)-G2H6G2), full length mouse V-ATPase subunit B1 fused to glutathione-S-transferase (from UniProt Q91YH6)
- Kd [2]: 2.3 nM

Molecule: O=C(N/N=C/c1ccccc1O)c1ccc(O)c(O)c1 [KM91104, 3,4-dihydroxy-N′-(2-hydroxybenzylidene)benzohydrazide]
- concentration above which osteoclast size / number of larger osteoclasts (>3 nuclei) is reduced (fusion impaired) (RAW 264.7 cells [3]; RANKL-differentiated RAW 264.7, 0.6 to 40 μM tested): above 1.25 μM
- TRAP staining of cells (RAW 264.7 cells [3]; all concentrations, 0.63 to 40 μM): essentially all cells stain for TRAP
- effect on osteoclast formation, differentiation and fusion (in words) (RAW 264.7 cells [3]): does not affect osteoclast differentiation or fusion to form large osteoclasts
- effect on osteoclast formation, differentiation and fusion (in words) (RAW 264.7 cells [3]; listed as lead compound): limited effect on their ability to differentiate or undergo fusion
- effect on osteoclast formation, differentiation and fusion (in words) (RAW 264.7 cells [3]; listed as the compound): little effect on osteoclast formation and differentiation
- cell density (RAW 264.7 cells [3]; highest concentration (40 μM)): reduction of cell density
- concentration that does not affect osteoclast fusion (RAW 264.7 cells [3]; summary of FIGS. 10 and 11): < 5 µM
- concentration up to which differentiation / mature osteoclast formation is not appreciably affected (TRAP) (RAW 264.7 cells [4]): up to 20 μM
- concentration up to which differentiation / mature osteoclast formation is not appreciably affected (TRAP) (RAW 264.7 cells [4]; listed as lead compound): < 20 µM
- effect on cell growth, metabolic activity, cytotoxicity (in words) [5]: does not affect cell growth or cause cytotoxicity
- effect on cell growth, metabolic activity, cytotoxicity (in words) ([5]; listed as lead compound): no discernable effect on growth or metabolic activity
- concentration that did not significantly affect cell growth / total protein [5]: up to 20 μM
- concentration that did not significantly affect cell growth / total protein ([5]; listed as lead compound): < 20 µM
- toxicity (in words) ([6]; murine RAW264.7 cells): low toxicity
- concentration up to which significant cytotoxicity is not seen (MTT) ([6]; undifferentiated RAW 264.7 cells, 0.3 to 40 μM tested, n=3): up to 2.5 μM
- formation / maturation of large BMM-derived osteoclasts [7]: does not significantly affect the formation of large osteoclasts
- formation / maturation of large BMM-derived osteoclasts ([7]; listed as lead compound): does not affect BMM derived osteoclast maturation
- IC50 ([8]; Mus musculus, RAW264.7, 120 h, 5 days, continuous exposure to RANKL and compound, image analysis of resorption areas, n=3, read-out: concentration for approximately half-maximal inhibition of resorption): ~1250 nM
- effect on resorption (in words) ([8]; in vitro, synthetic mineralized surface, listed as lead compound): inhibited resorption without affecting osteoclast formation; also recorded: prevents bone resorption in vitro
- reduction in resorption ([8]; lowest concentration tested (range 0.3 to 40 μM)): Highly significant reduction in resorption
- acid secretion of osteoclasts (in words) ([8]; listed as lead compound): inhibits acid secretion
- acid secretion of osteoclasts (in words) ([8]; listed as the compound): significantly reduced acid secretion

Molecule: GST-CTB2 fusion protein (GST-G2-B2(148-511)), C-terminal domain of mouse V-ATPase subunit B2 fused to glutathione-S-transferase
- Kd [9]: 4.1 nM

Molecule: GST-NTB2 fusion protein (GST-G2-B2(1-112)), N-terminal domain of mouse V-ATPase subunit B2 fused to glutathione-S-transferase
- Kd [10]: 230 nM
- fold reduction of binding against the full-length B2 subunit [11]: 60 fold

Source: patent publication US20110189306A1, “COMPOUNDS, COMPOSITIONS AND TREATMENTS FOR V-ATPase RELATED DISEASES” (priority 2010, published 2011)
